# Molecular target: T1, human glucagon receptor (Homo sapiens, UniProt P47871)
# T1 construct: expressed in transfected cells; host or cells: CHO-K1 cells, stably transfected
# Assay: Glucagon cAMP assay (Cisbio cAMP detection); also: 100 pM glucagon challenge
# Type: cell-based
# T1 sequence (P47871 26-477): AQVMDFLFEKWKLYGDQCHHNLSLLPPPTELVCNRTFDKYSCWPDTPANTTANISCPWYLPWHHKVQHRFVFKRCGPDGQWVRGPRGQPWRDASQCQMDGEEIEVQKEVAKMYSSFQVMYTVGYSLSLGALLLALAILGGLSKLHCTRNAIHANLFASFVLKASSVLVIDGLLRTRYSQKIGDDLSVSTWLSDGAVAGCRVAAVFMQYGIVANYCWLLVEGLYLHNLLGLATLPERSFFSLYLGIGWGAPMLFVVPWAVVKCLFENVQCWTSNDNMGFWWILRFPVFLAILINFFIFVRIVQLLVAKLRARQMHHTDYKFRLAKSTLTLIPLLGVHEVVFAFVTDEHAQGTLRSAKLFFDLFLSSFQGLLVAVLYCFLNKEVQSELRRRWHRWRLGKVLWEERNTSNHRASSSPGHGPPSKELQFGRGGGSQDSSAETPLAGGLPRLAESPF
row,SMILES,Kb [nM]
1,"Cc1cc(NC(CC(C)C)c2ccc(C(=O)NCCC(=O)O)cn2)cnc1-c1ccc(C(F)(F)F)cc1 (racemic) [Example 2.8, (+/−)-3-(6-(3-methyl-1-(5-methyl-6-(4-(trifluoromethyl)phenyl)pyridin-3-ylamino)butyl)nicotinamido)propanoic acid]",130
2,"CC(C)CC(Nc1ccc(C(=O)NCCC(=O)O)cn1)c1ccc(-c2ccc(Cl)cc2)cc1 (racemic) [Example 1.53, (+/−)-3-(6-(1-(4′-chlorobiphenyl-4-yl)-3-methylbutylamino)nicotinamido)propanoic acid]",46
3,"CCCC(Nc1cnc(-c2ccc(C(F)(F)F)cc2)nc1)c1ccc(C(=O)NCCC(=O)O)cc1 (single isomer, unassigned; isomer 1) [Example 2.16, 3-(4-(1-(2-(4-(trifluoromethyl)phenyl)pyrimidin-5-ylamino)butyl)benzamido)propanoic acid, Isomer 1]",120
4,"CC(C)CC(Nc1ccc(C(=O)NCCC(=O)O)cn1)c1ccc(-c2ccc(F)cc2)cc1 (racemic) [Example 1.51, (+/−)-3-(6-(1-(4′-fluorobiphenyl-4-yl)-3-methylbutylamino)nicotinamido)propanoic acid]",160
5,"CC(C)CC(Nc1ccc(C(=O)NCCC(=O)O)cn1)c1ccc(-c2ccc(OC(F)(F)F)cc2)cc1 (racemic) [Example 1.58, (+/−)-3-(6-(3-methyl-1-(4′-(trifluoromethoxy)biphenyl-4-yl)butylamino)nicotinamido)propanoic acid]",120
6,"Cc1ccc(-c2ccc(C(CC(C)C)Nc3ccc(C(=O)NCCC(=O)O)cn3)cc2)cn1 (racemic) [Example 1.36, (+/−)-3-(6-(3-methyl-1-(4-(6-methylpyridin-3-yl)phenyl)butylamino)nicotinamido)propanoic acid]",870
7,"CC(C)CC(Nc1ncc(C(=O)NCCC(=O)O)cn1)c1ccc(-c2ccc(C(F)(F)F)cc2)cc1 (single isomer, unassigned; isomer 2) [Example 1.6, 3-(2-(3-methyl-1-(4′-(trifluoromethyl)biphenyl-4-yl)butylamino)pyrimidine-5-carboxamido)propanoic acid, Isomer 2]",210
8,"CC(C)CC(Nc1ccc(C(=O)NCCC(=O)O)cn1)c1ccc(-c2ccc(C(C)C)cc2)cc1 (racemic) [Example 1.57, (+/−)-3-(6-(1-(4′-isopropylbiphenyl-4-yl)-3-methylbutylamino)nicotinamido)propanoic acid]",120
9,"O=C(O)CCNC(=O)c1ccc(NC(c2ccc(-c3ccc(C(F)(F)F)cc3)cc2)C2CC2)nc1 (racemic) [Example 1.34, (+/−)-3-(6-(cyclopropyl(4′-(trifluoromethyl)biphenyl-4-yl)methylamino)nicotinamido)propanoic acid]",550
10,"CC(C)CC(Nc1cnc(C(=O)NCCC(=O)O)cn1)c1ccc(-c2ccc(C(F)(F)F)cc2)cc1 (racemic) [Example 1.16, (+/−)-3-(5-(3-methyl-1-(4′-(trifluoromethyl)biphenyl-4-yl)butylamino)pyrazine-2-carboxamido)propanoic acid]",150
11,"CC(C)CC(Nc1ccc(C(=O)NCCC(=O)O)cn1)c1ccc(-c2ccccc2F)cc1 (racemic) [Example 1.38, (+/−)-3-(6-(1-(2′-fluorobiphenyl-4-yl)-3-methylbutylamino)nicotinamido)propanoic acid]",600
12,"CC(C)CC(Nc1ccc(C(=O)NCCC(=O)O)cn1)c1ccc(-c2cccc(Cl)c2)cc1 (racemic) [Example 1.39, (+/−)-3-(6-(1-(3′-chlorobiphenyl-4-yl)-3-methylbutylamino)nicotinamido)propanoic acid]",110
13,"CCCC(Nc1ccc(C(=O)NCCC(=O)O)cn1)c1ccc(-c2ccc(C(F)(F)F)cc2)cc1 (single isomer, unassigned; isomer 2) [Example 1.9, 3-(6-(1-(4′-(trifluoromethyl)biphenyl-4-yl)butylamino)nicotinamido) propanoic acid, Isomer 2]",130
14,"CCCC(Nc1cnc(-c2ccc(C(F)(F)F)cc2)nc1)c1ccc(C(=O)NCCC(=O)O)cc1 (racemic) [Example 2.15, (+/−)-3-(4-(1-(2-(4-(trifluoromethyl)phenyl)pyrimidin-5-ylamino)butyl)benzamido)propanoic acid]",120
15,"CC(C)CC(Oc1ccc(C(=O)NCCC(=O)O)cn1)c1ccc(-c2ccc(C(F)(F)F)cc2)cc1 (racemic) [Example 3.2, (+/−)-3-(6-(3-methyl-1-(4′-(trifluoromethyl)biphenyl-4-yl)butoxy)nicotinamido)propanoic acid]",1900
16,"O=C(O)CCNC(=O)c1ccc(NC(c2ccc(-c3ccc(C(F)(F)F)cc3)cc2)C2CCC2)nc1 (racemic) [Example 1.32, (+/−)-3-(6-(cyclobutyl(4′-(trifluoromethyl)biphenyl-4-yl)methylamino)nicotinamido)propanoic acid]",610
17,"Cc1cc(C(CC(C)C)Nc2ccc(C(=O)NCCC(=O)O)cn2)cc(C)c1-c1ccc(C(F)(F)F)cc1 (racemic) [Example 1.28, (+/−)-3-(6-(1-(2,6-dimethyl-4′-(trifluoromethyl)biphenyl-4-yl)-3-methylbutylamino)nicotinamido)propanoic acid]",83
18,"CCOc1ccc(-c2ccc(C(CC(C)C)Nc3ccc(C(=O)NCCC(=O)O)cn3)cc2)cc1 (racemic) [Example 1.46, (+/−)-3-(6-(1-(4′-ethoxybiphenyl-4-yl)-3-methylbutylamino)nicotinamido)propanoic acid]",92
19,"CC(C)CC(Nc1ncc(C(=O)NCCC(=O)O)cn1)c1ccc(-c2ccc(C(F)(F)F)cc2)cc1 (racemic) [Example 1.4, (+/−)-3-(2-(3-methyl-1-(4′-(trifluoromethyl)biphenyl-4-yl)butylamino)pyrimidine-5-carboxamido)propanoic acid]",560
20,"Cc1cc(C(CC(C)C)Nc2ncc(C(=O)NCCC(=O)O)cn2)cc(C)c1-c1ccc(C(F)(F)F)cc1 (racemic) [Example 1.27, (+/−)-3-(2-(1-(2,6-dimethyl-4′-(trifluoromethyl)biphenyl-4-yl)-3-methylbutylamino)pyrimidine-5-carboxamido)propanoic acid]",260
21,"CC(C)C(Nc1ccc(C(=O)NCCC(=O)O)cn1)c1ccc(-c2ccc(C(F)(F)F)cc2)cc1 (single isomer, unassigned; (-)) [Example 1.15, (−)-3-(6-(2-methyl-1-(4′-(trifluoromethyl)biphenyl-4-yl)propylamino)nicotinamido) propanoic acid]",78
22,CCC(Nc1ccc(C(=O)NCCC(=O)O)cn1)c1ccc(-c2ccc(C(F)(F)F)cc2)cc1 (racemic) [Example 1.11],280
23,"CCCC(Nc1cnc(-c2ccc(C(F)(F)F)cc2)nc1)c1ccc(C(=O)NCCC(=O)O)cc1 (single isomer, unassigned; isomer 2) [Example 2.17, 3-(4-(1-(2-(4-(trifluoromethyl)phenyl)pyrimidin-5-ylamino)butyl)benzamido)propanoic acid, Isomer 2]",420

# More lines, now with the values ahead:
row,Kb [nM],SMILES
1,94,"CCCC(Nc1ccc(C(=O)NCCC(=O)O)cn1)c1cnc(-c2ccc(OC(F)(F)F)cc2)nc1 (stereo not shown) [Example 4.25, 3-(6-(1-(2-(4-(trifluoromethoxy)phenyl)pyrimidin-5-yl)butylamino)nicotinamido)propanoic acid]"
2,53,"CC(C)CC(Nc1ccc(C(=O)N(C)CCC(=O)O)cn1)c1ccc(-c2ccc(C(F)(F)F)cc2)cc1 (single isomer, unassigned) [Example 4.6, 3-(N-methyl-6-((3-methyl-1-(4′-(trifluoromethyl)-[1,1′-biphenyl]-4-yl)butyl)amino)nicotinamido)propanoic acid (single enantiomer)]"
3,700,"O=C(O)CCNC(=O)c1ccc(NC(CCC(F)(F)F)c2ccc(-c3ccc(C(F)(F)F)cc3)cc2)nc1 (racemic) [Example 4.13, (+/−)-3-(6-(4,4,4-trifluoro-1-(4′-(trifluoromethyl)biphenyl-4-yl)butylamino)nicotinamido)propanoic acid]"
4,2700,CC(C)CC(Nc1cnc(-c2ccc(C(F)(F)F)cc2)nc1)c1ccc(C(=O)NCCC(=O)O)nc1 (stereo not shown) [Example 4.32]
5,99,"CCCC(Nc1cnc(-c2ccc(C(F)(F)F)cc2)cn1)c1ccc(C(=O)NCCC(=O)O)cc1 (racemic) [Example 4.3, (±)-3-(4-(1-((5-(4-(trifluoromethyl)phenyl)pyrazin-2-yl)amino)butyl)benzamido)propanoic acid]"
6,53,"CC(C)CC(Nc1ccc(C(=O)NCCC(=O)O)cn1)c1ccc(-c2ccc(C(F)(F)F)cn2)cc1 (racemic) [Example 4.22, (+/−)-3-(6-(3-methyl-1-(4-(5-(trifluoromethyl)pyridin-2-yl)phenyl)butylamino)nicotinamido)propanoic acid]"
7,67,"CC(C)C[C@H](Nc1ccc(C(=O)NCCC(=O)O)cn1)c1ccc(-c2ccc(C(F)(F)F)cn2)cc1 [Example 4.1, (S)—N-({6-[(3-methyl-1-{4-[5-(trifluoromethyl)pyridin-2-yl]phenyl}butyl)amino]pyridin-3-yl}carbonyl)-beta-alanine]"
8,220,"O=C(O)CCNC(=O)c1ccc(NC(c2ccc(-c3ccc(C(F)(F)F)cc3)cc2)C2CCOCC2)nc1 (racemic) [Example 4.7, (±)-3-(6-(((tetrahydro-2H-pyran-4-yl)(4′-(trifluoromethyl)-[1,1′-biphenyl]-4-yl)methyl)amino)nicotinamido)propanoic acid]"

# From patent publication US8809342B2, “Glucagon receptor modulators” (Pfizer Inc., priority 2010, dated 2014)
